Test results: patent publication US6444871B1, “Tetracycline repressor regulated mammalian cell transcription and viral replication switch” (Brigham and Women's Hospital, priority 1997, dated 2002)

Tested on: tet operator-bearing hCMV major immediate-early enhancer-promoter
Experiment: hEGF expression in porcine partial thickness wounds after particle-mediated gene transfer
Type: in vivo, pig
Settings: 500 mg tetracycline intravenous; day 2 to day 3 post-gene transfer
Experimental: FIG. 5. In vivo regulation of the hCMV major immediate-early enhancer-promoter by the tet repressor. A total of 18 partial thickness wounds ([…]) were created on porcine dorsal skin. Nine wounds received 0.2 μg of pCMVtetOEGF and 0.8 μg of pcDNA3 vector DNA and the others received 0.2 μg of pCMVtetOEGF and 0.8 μg of pcDNA3-tetR by particle-mediated gene transfer. After particle bombardment, each transfected wound was enclosed in a sealed vinyl adhesive chamber containing 1.2 ml of isotonic saline in the presence of 100 units/ml penicillin and 100 μg/ml streptomycin. Wound fluid was collected from the chambers at 22, 46 and 70 hours after gene transfer and stored at −70° C. Following collection of wound fluid at each indicated time point, a new chamber was applied. Each pig was given 500 mg of tetracycline by intravenous injection at 46 hours after gene transfer. hEGF expression in wound fluid was determined by ELISA. The vertical line associated with each bar represents standard error. […]
Preparation of cartridges with coated DNA-gold beads for Accell (Agracetus/Geniva, Inc.) particle-mediated gene transfer and the utilization of the Accell helium gene gun were according to the protocol provided by Geniva, Inc. (8520 University Green, Middleton, Wis. 53562). […] Levels of EGF in wound fluid was determined by ELISA with anti-HEGF specific antibody. […]

SMILES: CN(C)[C@@H]1C(O)=C(C(N)=O)C(=O)[C@@]2(O)C(O)=C3C(=O)c4c(O)cccc4[C@@](C)(O)[C@H]3C[C@@H]12 [tetracycline]
- increase of human EGF expression in wounds receiving pCMVtetOEGF and pcDNA3-tetR: 4 fold
